Results from patent publication US7956040B2, “Combination of catechin and quercetin for pharmaceutical or dietary use” (Giuliani International Limited, priority 2000, dated 2011).

What was measured:
platelet aggregation = conditions: high concentrations, several literature studies; cited from earlier work
platelets [1] = test: Platelet adhesion to collagen ([3H]oleic acid-labelled platelets); format: cell-based, human; conditions: 50 μmol of collagen/L [sic]
Method: The activation of platelets by collagen is a multistage process. Thus, after being attached initially to the platelets via the pathways of the second messenger, collagen stimulates the release of thromboxane and ADP, which are important platelet agonists that induce aggregation. To study the adhesion of the platelets to collagen (50 mg/L) without the interference of aggregation and of the activation induced by all the known agonists released by the platelet granules on stimulation by collagen, the platelets were subjected to preincubation with aspirin, a cyclooxygenase inhibitor, with the ADP removal system phosphocreatine and creatine kinase, and with the fibrinogen-fibronectin antagonist RDGS (13).

platelets [2] = test: Platelet function / platelet activation, overall conclusion of the study; format: cell-based, human; conditions: individually at 5 μmol of quercetin/L or 20 μmol of catechin/L (so in the source)
phospholipase C = test: Activation of phospholipase C: IP3 production in collagen-stimulated platelets; conditions: for decrease in IP3 production: 10 mg of collagen/L; for production of [32P]IP3 in platelets stimulated by collagen: catechin or quercetin alone
Method: Drug-free human blood obtained from healthy volunteers was coagulated with acid:citrate:dextrose. Platelet-rich plasma was centrifuged at 800×g for 20 min at room temperature and the pellet was suspended in a volume equal to half the initial volume of autologous plasma, low in platelets. The platelet suspensions were incubated for 1 h at 37° C. with 3 μmol of Fura 2/AM per L, 40 μmol DCFH-DA/L, 7.4 GBq (2 Ci) ^32Pi/L, or 3.7 MBq (1 mCi) [^3H]oleic acid/L. The platelets were washed by exclusion chromatography on Sepharose 2B using a Ca^2+-free Tyrodes buffer (134 mmol NaCl/L, 2.9 mmol KCl/L, 0.34 mmol Na2HPO4/L and 2 mmol MgCl2/L) containing 0.2% of bovine serum albumin, 5 mmol glucose/L and 10 mmol HEPES/L, pH 7.35.
The production of 1,3,4-inositol triphosphate (IP3, an indicator of activation of phospholipase C, was analysed 30 s after platelet activation according to Pulcinelli et al. J. Chromatogr. 1992,575:51-5. The collagen was used at a concentration of 10 mg/L, which was the lowest concentration capable of inducing a reproducible response. The platelet suspensions identified with [^3H]oleic acid were used for evaluating platelet adhesion to collagen (50 mg/L) according to Smith and Dangelmaier.

platelets [3] = test: Production of hydrogen peroxide in DCFH-DA-loaded platelets stimulated with collagen (flow cytometry); format: cell-based, human; conditions: for production of hydrogen peroxide caused by collagen: catechin or quercetin alone, scalar concentrations (Cat 50 and 100, Q 10 and 20 μmol/L), 10 and 20 mg of collagen/L; for formation of hydrogen peroxide caused by collagen: each compound alone at the low quantities (catechin 25 μmol/L; quercetin 5 μmol/L)
Method: (§1) DCFH-DA was added to the PSEC (final concentration: 40 μmol/L); after 15 minutes of incubation with or without catechin or quercetin, the PSEC were activated with collagen. The reaction was stopped with 2 mmol EGTA/L after 1 min. The samples were analysed in a Coulter XL-MCL flow cytometer (Hialeah, Fla.) equipped with an argon laser (emission 480 nm) set up for measuring the logarithmic diffusion of direct light, which is a measure of the dimensions of the particle; logarithmic diffusion of light at 90°, which is a measure of the granularity of the cell; and green fluorescence (DCF) 510-550 nm. The fluorescence signal generated by the probe was expressed as the stimulation index, i.e. intensity of mean channel fluorescence of the stimulated platelets/intensity of mean channel fluorescence of the unstimulated platelets. Platelet aggregation in vitro was evaluated according to Born. The collagen was used at concentrations of 2-4 mg/L.
Flow cytometry makes use of the properties of DCFH-DA, which diffuses rapidly through the cellular membranes and is then trapped inside the cell through a reaction of deacetylation. In the presence of hydrogen peroxide, this compound is oxidized to dichlorofluorescein (DCF), which is highly fluorescent.

platelets [4] = test: Cytosol platelet Ca2+ concentration / calcium mobilization (Fura 2) after collagen; format: cell-based, human; conditions: for decrease in calcium mobilization: 4 mg of collagen/L; for mobilization of calcium (percentage change in intracellular calcium concentration): catechin or quercetin alone
Method: The concentrations of cytosol platelet Ca^2+ were measured using the fluorescent indicator dye Fura 2, according to Grynkiewicz et al.; the changes in fluorescence were then monitored with a fluorimeter SFM 25 (Kontron, Zurich, Switzerland) set at emission wavelength of 510 nm and excitation wavelength of 340 nm.

platelets [5] = test: Platelet aggregation in vitro caused by collagen (according to Born); format: cell-based, human; conditions: for influence on platelet aggregation: 25 μmol of catechin/L or 5 μmol of quercetin/L used on their own; for platelet aggregation caused by collagen: catechin or quercetin alone, two concentrations of collagen (2 and 4 mg/L)
Method: as §1, with “The reaction was stopped with 2 mmol EGTA/L after 1 min.” left out

[6] = 100 μmol catechin/L or 20 μmol quercetin/L
[7] = catechin (50 and 100 μmol/L) or quercetin (10 and 20 μmol/L) on their own

Compound | platelet aggregation in vitro (platelet aggregation) | platelet adhesion to collagen (platelets [1]; [6]) | platelet adhesion to collagen (platelets [1]; [7]) | effect on platelet function (platelets [2]) | decrease in IP3 production (phospholipase C; 20 μmol of quercetin/L) [%] | production of [32P]IP3 in platelets stimulated by collagen (phospholipase C) | production of hydrogen peroxide caused by collagen (platelets [3]) | formation of hydrogen peroxide caused by collagen (platelets [3]) | decrease in calcium mobilization (platelets [4]; 20 μmol of quercetin/L) [%] | mobilization of calcium (percentage change in intracellular calcium concentration) (platelets [4]) | inhibition of platelet aggregation (platelets [5]; 20 μmol of quercetin/L, 2 mg/L collagen) [%] | inhibition of platelet aggregation (platelets [5]; 20 μmol of quercetin/L, 4 mg/L collagen) [%] | influence on platelet aggregation (platelets [5]) | platelet aggregation caused by collagen (platelets [5]) | decrease in IP3 production (phospholipase C; 100 μmol of catechin/L) [%] | decrease in calcium mobilization (platelets [4]; 100 μmol of catechin/L) [%] | inhibition of platelet aggregation (platelets [5]; 100 μmol of catechin/L, 2 mg of collagen/L) | inhibition of platelet aggregation (platelets [5]; 100 μmol of catechin/L, 4 mg of collagen/L)
O=c1c(O)c(-c2ccc(O)c(O)c2)oc2cc(O)cc(O)c12 [quercetin] | inhibit platelet aggregation | suppressed significantly | inhibited platelet adhesion to collagen | no effect on platelet function | 93 | inhibited | inhibited the production of hydrogen peroxide | neither of the two compounds alone at such low quantities is reported to have had any inhibitory effect | 65 | inhibited the mobilization of calcium | 50 | 43 | no influence on platelet aggregation | inhibited platelet aggregation | – | – | – | –
Oc1ccc(C=Cc2cc(O)cc(O)c2)cc1 [resveratrol] | inhibit platelet aggregation | – | – | – | – | – | – | – | – | – | – | – | – | – | – | – | – | –
catechin | inhibit platelet aggregation | suppressed significantly | inhibited platelet adhesion to collagen | no effect on platelet function | – | inhibited | inhibited the production of hydrogen peroxide | neither of the two compounds alone at such low quantities is reported to have had any inhibitory effect | – | inhibited the mobilization of calcium | – | – | no influence on platelet aggregation | inhibited platelet aggregation | 50 | 71 | ≈ 75% | ≈ 39%
